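Protocol summary: plate cells (96-well), add compound at 5 concentrations, incubate 48 h, interpolate endpoints linearly. GI50 is the concentration that inhibits growth by half.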 Active and inactive are the calls of the source. Rule as the data show it: active = GI50 up to about 1.1 µM and inactive = higher.
Experiments:
Assay in all cases: NCI-60 cell line screen, 48 h
LOX IMVI = test system: LOX IMVI
COLO 205 = test system: COLO 205
SK-OV-3 = test system: SK-OV-3
HOP-92 = test system: HOP-92
NCI-H23 = test system: NCI-H23
SN12C = test system: SN12C
CAKI-1 = test system: CAKI-1
SW-620 = test system: SW-620
ACHN = test system: ACHN
SF-539 = test system: SF-539
MOLT-4 = test system: MOLT-4
MDA-N = test system: MDA-N
OVCAR-4 = test system: OVCAR-4
HCT-116 = test system: HCT-116
EKVX = test system: EKVX
K562 = test system: K562
BT-549 = test system: BT-549
SK-MEL-28 = test system: SK-MEL-28
UACC-62 = test system: UACC-62
TK-10 = test system: TK-10

Measured: GI50

Clc1ccc(-c2nnc(-c3cccc4ccccc34)o2)cc1Cl
inactive: LOX IMVI > 100 µM | COLO 205 > 100 µM | SK-OV-3 > 100 µM | HOP-92 17.6 µM | NCI-H23 > 100 µM | SN12C > 100 µM | CAKI-1 > 100 µM | SW-620 > 100 µM | ACHN > 100 µM | SF-539 > 100 µM | MOLT-4 59.7 µM | MDA-N > 100 µM | OVCAR-4 98.4 µM | HCT-116 > 100 µM | EKVX > 100 µM | K562 > 100 µM | BT-549 > 100 µM | SK-MEL-28 > 100 µM | UACC-62 > 100 µM | TK-10 > 100 µM

OC(c1cc(-c2ccc(Cl)cc2)nc2ccccc12)C1CCCCN1 (stereo not given)
inactive: COLO 205 1.73 µM | SK-OV-3 2.16 µM | HOP-92 3.37 µM | NCI-H23 2.15 µM | SN12C 1.75 µM | CAKI-1 2.32 µM | SW-620 1.88 µM | ACHN 1.95 µM | SF-539 1.79 µM | MOLT-4 2.37 µM | MDA-N 1.95 µM | OVCAR-4 2.28 µM | HCT-116 1.92 µM | EKVX 2.14 µM | K562 1.48 µM | BT-549 5.09 µM | SK-MEL-28 1.87 µM | UACC-62 1.82 µM | TK-10 4.32 µM
active: LOX IMVI 0.982 µM

O=[N+]([O-])c1cc(F)ccc1Sc1ccccc1
inactive: LOX IMVI > 10 µM | COLO 205 > 10 µM | SK-OV-3 > 10 µM | HOP-92 > 10 µM | NCI-H23 > 10 µM | SN12C > 10 µM | CAKI-1 > 10 µM | SW-620 > 10 µM | ACHN > 10 µM | SF-539 > 10 µM | MOLT-4 > 10 µM | MDA-N > 10 µM | OVCAR-4 > 10 µM | HCT-116 > 10 µM | EKVX > 10 µM | K562 > 10 µM | BT-549 > 10 µM | SK-MEL-28 > 10 µM | UACC-62 > 10 µM | TK-10 > 10 µM

COc1ccc2c(c1)NC1(CCN(CCCC(=O)c3ccc(F)cc3)CC1)N=N2
inactive: LOX IMVI 18.7 µM | COLO 205 14.5 µM | SK-OV-3 33.4 µM | HOP-92 29.9 µM | NCI-H23 25.8 µM | SN12C 21 µM | CAKI-1 29.6 µM | SW-620 23.8 µM | ACHN 27.5 µM | SF-539 19.8 µM | MOLT-4 15.3 µM | MDA-N 17.7 µM | OVCAR-4 27.4 µM | HCT-116 17.1 µM | EKVX 32.2 µM | K562 19.4 µM | BT-549 26.4 µM | SK-MEL-28 20 µM | UACC-62 20.9 µM | TK-10 20.7 µM

Cc1nc(-c2ccccc2)c(-c2ccccc2)s1
inactive: LOX IMVI 16.4 µM | COLO 205 18.3 µM | SK-OV-3 22.9 µM | HOP-92 20.6 µM | NCI-H23 28.1 µM | SN12C 37.9 µM | CAKI-1 20.2 µM | SW-620 15.7 µM | ACHN 26.9 µM | SF-539 22.6 µM | MOLT-4 17.6 µM | MDA-N 11.4 µM | OVCAR-4 19.6 µM | HCT-116 25.6 µM | EKVX 22.6 µM | K562 18.8 µM | BT-549 23.9 µM | SK-MEL-28 45 µM | UACC-62 18 µM | TK-10 19.7 µM

COc1cc(OC)cc(Oc2nc3ccccc3nc2C(F)(F)F)c1
inactive: LOX IMVI > 100 µM | COLO 205 > 100 µM | SK-OV-3 > 100 µM | HOP-92 42 µM | NCI-H23 > 100 µM | SN12C > 100 µM | CAKI-1 > 100 µM | SW-620 20.4 µM | ACHN > 100 µM | SF-539 52.5 µM | MOLT-4 > 100 µM | MDA-N 3.66 µM | OVCAR-4 > 100 µM | HCT-116 > 100 µM | EKVX > 100 µM | K562 9.25 µM | BT-549 > 100 µM | SK-MEL-28 > 100 µM | UACC-62 > 100 µM | TK-10 > 100 µM

Cc1ccc2c(c1)CC1(C2=O)[C@H](c2ccccc2)C2C(=O)c3ccc(C)cc3C2[C@H]1c1ccccc1 (stereo not given in full)
inactive: LOX IMVI > 100 µM | COLO 205 > 100 µM | SK-OV-3 > 100 µM | HOP-92 > 100 µM | NCI-H23 > 100 µM | SN12C > 100 µM | CAKI-1 > 100 µM | SW-620 > 100 µM | ACHN > 100 µM | SF-539 > 100 µM | MOLT-4 43.8 µM | MDA-N > 100 µM | OVCAR-4 > 100 µM | HCT-116 24.9 µM | EKVX > 100 µM | K562 30.7 µM | BT-549 > 100 µM | SK-MEL-28 > 100 µM | UACC-62 > 100 µM | TK-10 > 100 µM

COC(=O)/C=C(\C)CC(O)/C=C(\C)CCC=C(C)C (stereo not given)
inactive: LOX IMVI 29.4 µM | COLO 205 41.2 µM | SK-OV-3 > 100 µM | HOP-92 71.6 µM | NCI-H23 26.9 µM | SN12C > 100 µM | CAKI-1 92.7 µM | SW-620 60.8 µM | ACHN 64.7 µM | SF-539 > 100 µM | MOLT-4 18.7 µM | MDA-N 35.5 µM | OVCAR-4 44 µM | HCT-116 40.5 µM | EKVX 46.1 µM | K562 32.1 µM | BT-549 31.2 µM | SK-MEL-28 69 µM | UACC-62 40.7 µM | TK-10 55.8 µM

CCN(CC)CCSc1c(C(C)=O)c(=O)n(-c2ccccc2)c(=S)n1-c1ccccc1
inactive: LOX IMVI 3.32 µM | COLO 205 1.8 µM | SK-OV-3 34 µM | HOP-92 1.9 µM | NCI-H23 14.7 µM | SN12C 14.4 µM | CAKI-1 10.2 µM | SW-620 2.25 µM | ACHN 3.77 µM | SF-539 2.4 µM | MOLT-4 2.77 µM | MDA-N 6.68 µM | OVCAR-4 9.1 µM | HCT-116 2.28 µM | EKVX 15.1 µM | K562 3.09 µM | BT-549 15.5 µM | SK-MEL-28 10.5 µM | UACC-62 14.4 µM | TK-10 5.47 µM

CC1C(=O)OC2CC[N+]3([O-])CC=C(COC(=O)C(C)(O)C1(C)O)C23 (stereo not given)
inactive: LOX IMVI > 100 µM | COLO 205 > 100 µM | SK-OV-3 > 100 µM | HOP-92 > 100 µM | NCI-H23 > 100 µM | SN12C > 100 µM | CAKI-1 > 100 µM | SW-620 > 100 µM | ACHN > 100 µM | SF-539 > 100 µM | MOLT-4 > 100 µM | MDA-N > 100 µM | OVCAR-4 > 100 µM | HCT-116 > 100 µM | EKVX > 100 µM | K562 > 100 µM | BT-549 > 100 µM | SK-MEL-28 > 100 µM | UACC-62 > 100 µM | TK-10 > 100 µM

CCCC(=O)NC(Nc1ccc(S(=O)(=O)Nc2nc(C)cc(C)n2)cc1)(C(F)(F)F)C(F)(F)F
inactive: LOX IMVI > 100 µM | COLO 205 > 100 µM | SK-OV-3 > 100 µM | HOP-92 > 100 µM | NCI-H23 > 100 µM | SN12C > 100 µM | CAKI-1 > 100 µM | SW-620 > 100 µM | ACHN > 100 µM | SF-539 > 100 µM | MOLT-4 > 100 µM | MDA-N > 100 µM | OVCAR-4 > 100 µM | HCT-116 > 100 µM | EKVX > 100 µM | K562 > 100 µM | BT-549 > 100 µM | SK-MEL-28 > 100 µM | UACC-62 > 100 µM | TK-10 > 100 µM

N#CC1(C2SCC[S+]2[O-])C2=C(C(=O)c3ccccc3C2=O)N2CCCC21 (stereo not given)
active: LOX IMVI 0.986 µM | NCI-H23 1.11 µM | MDA-N 0.605 µM
inactive: COLO 205 2.24 µM | SK-OV-3 15.3 µM | HOP-92 3.85 µM | SN12C 2.38 µM | CAKI-1 4.42 µM | SW-620 2.13 µM | ACHN 5.52 µM | SF-539 3 µM | MOLT-4 3.06 µM | OVCAR-4 1.7 µM | HCT-116 2 µM | EKVX 4.8 µM | K562 3.38 µM | BT-549 2.29 µM | SK-MEL-28 2.85 µM | UACC-62 2.85 µM | TK-10 8.77 µM

CCc1nc(N)nc(N)c1-c1ccc(N(C)Cc2ccccc2)c([N+](=O)[O-])c1
active: LOX IMVI < 0.0114 µM | COLO 205 0.522 µM | HOP-92 0.962 µM | NCI-H23 0.0708 µM | CAKI-1 0.0706 µM | SW-620 0.0155 µM | ACHN 0.0342 µM | SF-539 0.14 µM | MOLT-4 0.059 µM | MDA-N 0.0243 µM | HCT-116 < 0.01 µM | K562 < 0.01 µM | UACC-62 0.0357 µM
inactive: SK-OV-3 7.62 µM | SN12C 1.34 µM | OVCAR-4 5.15 µM | EKVX 1.16 µM | BT-549 4.9 µM | SK-MEL-28 4.79 µM | TK-10 7.13 µM
